#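 Values below derive from 48-hour exposures of cells grown in 96-well plates, with endpoints linearly interpolated between the two concentrations bracketing the appropriate inhibition level. At the GI50, growth is halved. TGI: total growth inhibition.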
# Key:
# Assay in all cases: DTP human tumour cell line panel, 48 h
# SW-620 colon = test system: SW-620 colon
# CCRF-CEM leukemia = test system: CCRF-CEM leukemia
# HOP-92 NSCLC = test system: HOP-92 NSCLC
# OVCAR-8 ovarian = test system: OVCAR-8 ovarian
# MCF7 breast = test system: MCF7 breast
# HCT-116 colon = test system: HCT-116 colon
# NCI-H460 lung = test system: NCI-H460 lung
# 786-0 renal = test system: 786-0 renal
# SNB-75 CNS = test system: SNB-75 CNS
# BT-549 breast = test system: BT-549 breast
# MALME-3M melanoma = test system: MALME-3M melanoma
# SF-539 CNS = test system: SF-539 CNS
# SK-MEL-28 melanoma = test system: SK-MEL-28 melanoma
# A549 NSCLC = test system: A549 NSCLC
# SK-MEL-5 melanoma = test system: SK-MEL-5 melanoma
# T-47D breast = test system: T-47D breast
# HCC-2998 colon = test system: HCC-2998 colon
# TK-10 renal = test system: TK-10 renal
# HCT-15 colon = test system: HCT-15 colon
# M14 melanoma = test system: M14 melanoma
# U251 CNS = test system: U251 CNS
# HS 578T breast = test system: HS 578T breast
# HT29 colon = test system: HT29 colon
# SR leukemia = test system: SR leukemia
# CAKI-1 renal = test system: CAKI-1 renal
# EKVX NSCLC = test system: EKVX NSCLC
# MOLT-4 leukemia = test system: MOLT-4 leukemia
# MDA-MB-231 breast = test system: MDA-MB-231 breast
# K-562 leukemia = test system: K-562 leukemia
# HL-60(TB) leukemia = test system: HL-60(TB) leukemia
# KM12 colon = test system: KM12 colon
# HOP-62 NSCLC = test system: HOP-62 NSCLC
# NCI-H522 lung = test system: NCI-H522 lung
# COLO 205 colon = test system: COLO 205 colon
# IGROV1 ovarian = test system: IGROV1 ovarian
# RXF 393 renal = test system: RXF 393 renal
# LOX IMVI melanoma = test system: LOX IMVI melanoma
# NCI-H226 lung = test system: NCI-H226 lung
# OVCAR-5 ovarian = test system: OVCAR-5 ovarian
# DU-145 prostate = test system: DU-145 prostate
# RPMI-8226 leukemia = test system: RPMI-8226 leukemia
# SK-MEL-2 melanoma = test system: SK-MEL-2 melanoma
# PC-3 prostate = test system: PC-3 prostate
# OVCAR-4 ovarian = test system: OVCAR-4 ovarian
# UACC-62 melanoma = test system: UACC-62 melanoma
# MDA-MB-435 = test system: MDA-MB-435
# NCI/ADR-RES ovarian = test system: NCI/ADR-RES ovarian
# UACC-257 melanoma = test system: UACC-257 melanoma
# SK-OV-3 ovarian = test system: SK-OV-3 ovarian
# UO-31 renal = test system: UO-31 renal
# SF-268 CNS = test system: SF-268 CNS
# OVCAR-3 ovarian = test system: OVCAR-3 ovarian
# A498 renal = test system: A498 renal
# SF-295 CNS = test system: SF-295 CNS
# ACHN renal = test system: ACHN renal
# SN12C renal = test system: SN12C renal
# NCI-H23 lung = test system: NCI-H23 lung
structure (smiles),measurement,setting,value
CCN=c1cc2sc3cc(NCC)c(C)cc3nc-2cc1C,GI50,SW-620 colon,694 nM
same,TGI,SW-620 colon,12800 nM
same,GI50,CCRF-CEM leukemia,760 nM
same,TGI,CCRF-CEM leukemia,17400 nM
same,GI50,HOP-92 NSCLC,652 nM
same,TGI,HOP-92 NSCLC,5620 nM
same,GI50,OVCAR-8 ovarian,1220 nM
same,TGI,OVCAR-8 ovarian,11800 nM
same,GI50,MCF7 breast,242 nM
same,TGI,MCF7 breast,937 nM
same,GI50,HCT-116 colon,361 nM
same,TGI,HCT-116 colon,2010 nM
same,GI50,NCI-H460 lung,821 nM
same,TGI,NCI-H460 lung,5000 nM
same,GI50,786-0 renal,3100 nM
same,TGI,786-0 renal,15500 nM
same,GI50,SNB-75 CNS,1800 nM
same,TGI,SNB-75 CNS,5110 nM
same,GI50,BT-549 breast,2870 nM
same,TGI,BT-549 breast,19900 nM
same,GI50,MALME-3M melanoma,782 nM
same,TGI,MALME-3M melanoma,3880 nM
same,GI50,SF-539 CNS,434 nM
same,TGI,SF-539 CNS,10200 nM
same,GI50,SK-MEL-28 melanoma,11700 nM
same,TGI,SK-MEL-28 melanoma,25600 nM
same,GI50,A549 NSCLC,1840 nM
same,TGI,A549 NSCLC,10900 nM
same,GI50,SK-MEL-5 melanoma,475 nM
same,TGI,SK-MEL-5 melanoma,1930 nM
same,GI50,T-47D breast,580 nM
same,TGI,T-47D breast,10500 nM
same,GI50,HCC-2998 colon,3500 nM
same,TGI,HCC-2998 colon,11800 nM
same,GI50,TK-10 renal,2040 nM
same,TGI,TK-10 renal,6940 nM
same,GI50,HCT-15 colon,489 nM
same,TGI,HCT-15 colon,9510 nM
same,GI50,M14 melanoma,636 nM
same,TGI,M14 melanoma,2740 nM
same,GI50,U251 CNS,646 nM
same,TGI,U251 CNS,6710 nM
same,GI50,HS 578T breast,2140 nM
same,TGI,HS 578T breast,15200 nM
same,GI50,HT29 colon,2980 nM
same,TGI,HT29 colon,10400 nM
same,GI50,SR leukemia,1010 nM
same,TGI,SR leukemia,> 100000 nM
same,GI50,CAKI-1 renal,1340 nM
same,TGI,CAKI-1 renal,4600 nM
same,GI50,EKVX NSCLC,632 nM
same,TGI,EKVX NSCLC,4530 nM
same,GI50,MOLT-4 leukemia,714 nM
same,TGI,MOLT-4 leukemia,> 100000 nM
same,GI50,MDA-MB-231 breast,334 nM
same,TGI,MDA-MB-231 breast,11100 nM
same,GI50,K-562 leukemia,358 nM
same,TGI,K-562 leukemia,16300 nM
same,GI50,HL-60(TB) leukemia,1660 nM
same,TGI,HL-60(TB) leukemia,8480 nM
same,GI50,KM12 colon,654 nM
same,TGI,KM12 colon,11000 nM
same,GI50,HOP-62 NSCLC,2090 nM
same,TGI,HOP-62 NSCLC,7340 nM
same,GI50,NCI-H522 lung,419 nM
same,TGI,NCI-H522 lung,2610 nM
same,GI50,COLO 205 colon,2150 nM
same,TGI,COLO 205 colon,7780 nM
same,GI50,IGROV1 ovarian,2400 nM
same,TGI,IGROV1 ovarian,9210 nM
same,GI50,RXF 393 renal,3220 nM
same,TGI,RXF 393 renal,18000 nM
same,GI50,LOX IMVI melanoma,746 nM
same,TGI,LOX IMVI melanoma,4280 nM
same,GI50,NCI-H226 lung,10100 nM
same,TGI,NCI-H226 lung,29000 nM
same,GI50,OVCAR-5 ovarian,2510 nM
same,TGI,OVCAR-5 ovarian,9260 nM
same,GI50,DU-145 prostate,1970 nM
same,TGI,DU-145 prostate,4160 nM
same,GI50,RPMI-8226 leukemia,233 nM
same,TGI,RPMI-8226 leukemia,3450 nM
same,GI50,SK-MEL-2 melanoma,1820 nM
same,TGI,SK-MEL-2 melanoma,4640 nM
same,GI50,PC-3 prostate,133 nM
same,TGI,PC-3 prostate,4720 nM
same,GI50,OVCAR-4 ovarian,237 nM
same,TGI,OVCAR-4 ovarian,2310 nM
same,GI50,UACC-62 melanoma,6880 nM
same,TGI,UACC-62 melanoma,21800 nM
same,GI50,MDA-MB-435,1550 nM
same,TGI,MDA-MB-435,4330 nM
same,GI50,NCI/ADR-RES ovarian,1770 nM
same,TGI,NCI/ADR-RES ovarian,7310 nM
same,GI50,UACC-257 melanoma,1660 nM
same,TGI,UACC-257 melanoma,6550 nM
same,GI50,SK-OV-3 ovarian,2580 nM
same,TGI,SK-OV-3 ovarian,12600 nM
same,GI50,UO-31 renal,2160 nM
same,TGI,UO-31 renal,16400 nM
same,GI50,SF-268 CNS,2470 nM
same,TGI,SF-268 CNS,14400 nM
same,GI50,OVCAR-3 ovarian,149 nM
same,TGI,OVCAR-3 ovarian,714 nM
same,GI50,A498 renal,14000 nM
same,TGI,A498 renal,53400 nM
same,GI50,SF-295 CNS,669 nM
same,TGI,SF-295 CNS,4810 nM
same,GI50,ACHN renal,1580 nM
same,TGI,ACHN renal,10600 nM
same,GI50,SN12C renal,1500 nM
same,TGI,SN12C renal,12500 nM
same,GI50,NCI-H23 lung,437 nM
same,TGI,NCI-H23 lung,3690 nM

# — PubChem BioAssay (NCI)
